From US10980805B2, “Aza-pyridone compounds and uses thereof” (Janssen BioPharma, Inc., priority 2013, dated 2021)

How the values were obtained:
[1] = tested on: Influenza strain A549_A/WSN/33 (H1N1); experiment: Influenza antiviral assay (neuraminidase fluorescence readout); type: cell-based, Influenza virus; details: Influenza A virus, read-out: % Inhibition (EC50 class, Table 2)
[2] = target: Full length EN PA (influenza PA endonuclease) (Influenza A virus, UniProt P15659); experiment: EN PA FRET inhibition assay; type: biochemical; details: FRET probe, mean of a minimum of two independent experiments, read-out: Potency (IC50 class, Table 3)
[3] = tested on: Influenza strain A/Port Chalmers/1/73 (H3N2); experiment: Combination studies (checker-board, MacSynergy II); type: cell-based, Influenza virus; details: MDCK cells, three days
[4] = tested on: influenza strains B/Malaysia/2506/2004 or B/Victoria/504/2000; experiment: Influenza B assay (fluorescence-based influenza neuraminidase assay); type: cell-based; details: Influenza B virus, A549, 20 h; read-out: Potency (EC50)
[5] = Compound 2 = 21-A (PA Inhibitor)
[6] = Compound 2 = Amantadine (M2 Channel-Inhibitor)
[7] = Compound 2 = Rimantadine (M2 Channel-Inhibitor)
[8] = Compound 2 = drawing 296 (Polymerase Inhibitor)

## CC(C)N1C[C@H](C(c2ccccc2)c2ccccc2)n2ncc(=O)c(O)c2C1=O [Compound 6-A]
[1]
  EC50: < 20 µM
[2]
  IC50: < 0.25 µM
[3]; [5]
  Observed Result: additive (volumes in the −25-25 range indicate additive behavior)
  Synergy Volume: 4.1 μM^2%
[3]; [6]
  Observed Result: additive (volumes in the −25-25 range indicate additive behavior)
  Synergy Volume: 22.5 μM^2%
[3]; Compound 2 = Consensus Interferon alpha (Immuno-modulator)
  Synergy Volume: 70 μM^2%
[3]; Compound 2 = Favipiravir (T-705) (Polymerase Inhibitor)
  Synergy Volume: 185 μM^2%
[3]; Compound 2 = Laninamivir (Neuraminidase-Inhibitor)
  Synergy Volume: 276 μM^2%
[3]; Compound 2 = Oseltamivir (Neuraminidase-Inhibitor)
  Synergy Volume: 233 μM^2%
[3]; Compound 2 = Peramivir (Neuraminidase-Inhibitor)
  Synergy Volume: 308 μM^2%
[3]; Compound 2 = Ribavirin (Polymerase Inhibitor)
  Synergy Volume: 109 μM^2%
[3]; [7]
  Observed Result: additive (volumes in the −25-25 range indicate additive behavior)
  Synergy Volume: 4.6 μM^2%
[3]; Compound 2 = Zanamivir (Neuraminidase-Inhibitor)
  Synergy Volume: 217 μM^2%
[3]; [8]
  Observed Result: strongly synergistic
  Synergy Volume: 440 μM^2%
[4]
  EC50: < 20 µM
